Assay results published in EP4745135A1 (Gluetacs Therapeutics (Shanghai) Co., Ltd., priority 2023, dated 2025).

Assays:
CK1α = target: T1, CK1α (Homo sapiens, UniProt P48729+Q96SW2); experiment: Western blot, degradation of substrate protein in hPBMCs; type: cell-based
T1 construct: effects of the compounds of the present disclosure on the expression of target proteins in cells; endogenous in cells; host or cells: human PBMCs (Milecell Biotechnologies)

IKZF1 = target: T2, IKZF1 (Homo sapiens, UniProt Q13422+Q96SW2); experiment: as above; type: cell-based
T2 construct: effects of the compounds of the present disclosure on the expression of target proteins in cells; endogenous in cells; host or cells: human PBMCs (Milecell Biotechnologies)

IKZF2 = target: T3, IKZF2 (Homo sapiens, UniProt Q96SW2+Q9UKS7); experiment: as above; type: cell-based
T3 construct: effects of the compounds of the present disclosure on the expression of target proteins in cells; endogenous in cells; host or cells: human PBMCs (Milecell Biotechnologies)

IKZF3 = target: T4, IKZF3 (Homo sapiens, UniProt Q96SW2+Q9UKT9); experiment: as above; type: cell-based
T4 construct: effects of the compounds of the present disclosure on the expression of target proteins in cells; endogenous in cells; host or cells: human PBMCs (Milecell Biotechnologies)

WEE1 = target: T5, WEE1 (Homo sapiens, UniProt P30291+Q96SW2); experiment: as above; type: cell-based
T5 construct: effects of the compounds of the present disclosure on the expression of target proteins in cells; endogenous in cells; host or cells: human PBMCs (Milecell Biotechnologies)

GSPT1 = experiment: as above; type: cell-based, Human
[1] = target: T6, human Cereblon WT GST-tagged protein (Homo sapiens, UniProt Q96SW2); experiment: CRBN-binding affinity, HTRF (CEREBLON BINDING kit); details: for inhibition at 0.5 µM: read-out: Inhibition Rate at 0.5 µM (%); for inhibition at 2 µM: read-out: Inhibition Rate at 2 µM (%)
T6 construct: purchased CISBIO 64BDCRBNPEH

[2] = test system: Human multiple myeloma cell (MM.1S); experiment: Tumor cell proliferation inhibition (CellTiter-Meiluncell luminescent cell viability assay); details: Homo sapiens, MM1.S, 96 h; for inhibition at 0.01 µM: read-out: Inhibition Rate at 10 nM (%); for inhibition at 0.5 µM: read-out: Inhibition Rate at 500 nM (%)
[3] = test system: Human acute T lymphocytic leukemia cell (Molt4); experiment: as above; details: MOLT-4, 96 h; for inhibition at 0.01 µM: read-out: Inhibition Rate at 10 nM (%); for inhibition at 0.5 µM: read-out: Inhibition Rate at 500 nM (%)
Experimental: The tumor cells used herein were cultured in a cell culture medium listed in table 2 at 37°C in an incubator with 5% CO2. Prior to experimentation, all cell lines used were correctly identified by STR profiling, and tested negative for mycoplasma contamination using a mycoplasma detection kit through routine screenings.
The IC50 values of the compounds of the present disclosure (including the compounds in Table 1 and Examples) were determined using the CellTiter-Meiluncell Luminescent Cell Viability Assay Kit from Dalian Meilun Biotech Co., Ltd. The detailed procedure is as follows: Tumor cells were seeded in 96-well cell culture plates at the densities specified in Table 3. On the following day, the test compounds of the present disclosure were subjected to serial dilution. The dilution can be performed according to one of the following two methods: • (1) The first dilution method: The test compounds of the present disclosure (including the compounds in Table 1 and Examples) were subjected to 5-fold serial dilutions starting from a highest concentration of 2000 µM, resulting in a total of 9 concentrations from high to low (2000, 400, 80, 16, 3.2, 0.64, 0.128, 0.0256, 0.00512 µM). Subsequently, 0.5 µL of the test compound dilution was transferred into the 96-well plate containing the cells, with each well containing 100 µL of cell culture medium. […] Into the 96-well plate, the diluted test compounds and corresponding detection reagents were added, resulting in final test compound concentrations of 500 nM and 10 nM, respectively. The experimental procedure is described below using the diluted 2 µM test compound as an example.
0.5 µL of the aforementioned diluted compound of the present disclosure (including the compounds in Table 1 and Examples) was added to the seeded cells in 100 µL of medium, yielding a final test compound concentration of 10 nM. After the cells were treated with the compounds of the present disclosure for a specified period, the cell viability assay reagent was added to the culture medium according to the kit's instructions to determine cell viability. […] All controls were treated using the same procedure as the compounds of the present disclosure. The growth inhibition curves for the compounds of the present disclosure were plotted using Prism GraphPad software, and the IC50 values were calculated therefrom.

[4] = test system: Human myeloid monocytic leukemia cell (MV-4-11); experiment: as above; details: MV4-11, 96 h; for inhibition at 0.01 µM: read-out: Inhibition Rate at 10 nM (%); for inhibition at 0.5 µM: read-out: Inhibition Rate at 500 nM (%)
[5] = Western blot, 24 hours of compound treatment, compounds tested at 50 nM and 500 nM (concentration for the table not stated)
[6] = 24 hours treatment, compounds at 50 nM and 500 nM (concentration behind the class not stated)

T4 sequence (Q9UKT9 whole entry): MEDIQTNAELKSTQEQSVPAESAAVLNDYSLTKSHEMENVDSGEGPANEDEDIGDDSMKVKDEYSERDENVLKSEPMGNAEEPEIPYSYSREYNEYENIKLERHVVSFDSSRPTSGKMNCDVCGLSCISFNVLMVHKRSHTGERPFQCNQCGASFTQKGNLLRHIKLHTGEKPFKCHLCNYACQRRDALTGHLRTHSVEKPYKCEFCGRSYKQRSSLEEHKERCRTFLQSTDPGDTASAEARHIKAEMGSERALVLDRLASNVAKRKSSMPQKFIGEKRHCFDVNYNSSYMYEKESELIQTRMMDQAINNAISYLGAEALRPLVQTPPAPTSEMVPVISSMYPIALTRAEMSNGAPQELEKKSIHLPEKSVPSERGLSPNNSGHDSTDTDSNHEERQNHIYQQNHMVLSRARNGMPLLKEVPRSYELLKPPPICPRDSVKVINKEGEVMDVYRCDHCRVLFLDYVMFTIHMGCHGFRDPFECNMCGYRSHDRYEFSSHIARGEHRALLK
T4 sequence (Q96SW2 whole entry): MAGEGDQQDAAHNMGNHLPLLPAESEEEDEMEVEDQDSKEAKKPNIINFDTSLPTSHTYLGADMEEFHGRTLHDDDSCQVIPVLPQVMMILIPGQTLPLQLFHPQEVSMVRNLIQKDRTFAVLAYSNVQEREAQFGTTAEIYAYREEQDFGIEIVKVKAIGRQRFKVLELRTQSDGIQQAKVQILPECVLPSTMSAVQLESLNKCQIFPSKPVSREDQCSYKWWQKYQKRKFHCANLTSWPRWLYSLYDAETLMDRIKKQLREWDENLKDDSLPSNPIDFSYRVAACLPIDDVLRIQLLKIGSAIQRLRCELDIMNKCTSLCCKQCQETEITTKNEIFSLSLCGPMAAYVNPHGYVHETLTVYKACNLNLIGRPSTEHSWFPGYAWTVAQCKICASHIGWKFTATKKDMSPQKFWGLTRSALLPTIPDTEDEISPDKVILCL
T4 sequence (Q16531 whole entry partner): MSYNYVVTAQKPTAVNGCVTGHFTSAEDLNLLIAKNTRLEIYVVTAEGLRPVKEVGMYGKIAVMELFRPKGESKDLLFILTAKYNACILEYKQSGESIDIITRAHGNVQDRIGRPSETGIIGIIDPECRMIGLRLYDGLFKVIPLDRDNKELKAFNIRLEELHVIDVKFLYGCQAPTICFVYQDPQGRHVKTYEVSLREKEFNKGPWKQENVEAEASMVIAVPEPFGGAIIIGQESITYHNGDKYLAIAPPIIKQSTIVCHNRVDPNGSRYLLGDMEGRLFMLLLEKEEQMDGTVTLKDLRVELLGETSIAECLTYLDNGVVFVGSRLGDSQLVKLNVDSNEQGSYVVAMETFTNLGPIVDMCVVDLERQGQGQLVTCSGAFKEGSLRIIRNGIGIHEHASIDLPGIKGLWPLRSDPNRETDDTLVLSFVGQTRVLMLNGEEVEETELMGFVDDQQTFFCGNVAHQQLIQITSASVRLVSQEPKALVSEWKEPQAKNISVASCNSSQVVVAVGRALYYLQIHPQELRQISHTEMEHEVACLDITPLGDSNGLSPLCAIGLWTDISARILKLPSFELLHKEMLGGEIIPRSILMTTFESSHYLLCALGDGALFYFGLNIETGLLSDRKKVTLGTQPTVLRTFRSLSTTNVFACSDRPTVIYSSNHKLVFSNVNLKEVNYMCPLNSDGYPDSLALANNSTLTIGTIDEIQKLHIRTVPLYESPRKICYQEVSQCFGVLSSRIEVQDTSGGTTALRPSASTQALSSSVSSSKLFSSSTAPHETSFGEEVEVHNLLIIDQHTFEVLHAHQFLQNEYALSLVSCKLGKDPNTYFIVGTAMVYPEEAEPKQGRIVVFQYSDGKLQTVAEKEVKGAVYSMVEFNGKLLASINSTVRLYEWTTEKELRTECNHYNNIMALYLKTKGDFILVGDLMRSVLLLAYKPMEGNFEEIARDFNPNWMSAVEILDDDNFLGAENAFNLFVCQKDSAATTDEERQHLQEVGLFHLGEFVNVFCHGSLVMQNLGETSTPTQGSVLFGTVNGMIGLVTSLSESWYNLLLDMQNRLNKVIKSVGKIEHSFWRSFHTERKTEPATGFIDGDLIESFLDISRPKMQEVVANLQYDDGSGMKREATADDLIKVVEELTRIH
T2 sequence (Q13422 whole entry): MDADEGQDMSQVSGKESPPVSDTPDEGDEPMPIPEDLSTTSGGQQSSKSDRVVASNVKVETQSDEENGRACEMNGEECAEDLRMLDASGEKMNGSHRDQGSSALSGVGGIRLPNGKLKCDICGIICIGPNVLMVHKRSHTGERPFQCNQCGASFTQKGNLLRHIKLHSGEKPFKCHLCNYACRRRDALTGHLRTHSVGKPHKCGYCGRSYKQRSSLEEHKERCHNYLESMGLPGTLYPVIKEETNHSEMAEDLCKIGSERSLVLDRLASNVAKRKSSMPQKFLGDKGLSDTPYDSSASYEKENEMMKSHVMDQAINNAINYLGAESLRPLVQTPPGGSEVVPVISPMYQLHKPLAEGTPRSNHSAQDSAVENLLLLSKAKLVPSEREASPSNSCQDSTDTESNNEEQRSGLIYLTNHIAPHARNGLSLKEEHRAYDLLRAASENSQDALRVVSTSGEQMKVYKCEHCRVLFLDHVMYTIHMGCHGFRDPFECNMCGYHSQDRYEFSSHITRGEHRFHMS
T2 sequence (Q96SW2 whole entry): as the sequence (Q96SW2 whole entry) above
T2 sequence (Q16531 whole entry partner): as the sequence (Q16531 whole entry partner) above
T6 sequence (Q96SW2 whole entry): as the sequence (Q96SW2 whole entry) above
T1 sequence (P48729 whole entry): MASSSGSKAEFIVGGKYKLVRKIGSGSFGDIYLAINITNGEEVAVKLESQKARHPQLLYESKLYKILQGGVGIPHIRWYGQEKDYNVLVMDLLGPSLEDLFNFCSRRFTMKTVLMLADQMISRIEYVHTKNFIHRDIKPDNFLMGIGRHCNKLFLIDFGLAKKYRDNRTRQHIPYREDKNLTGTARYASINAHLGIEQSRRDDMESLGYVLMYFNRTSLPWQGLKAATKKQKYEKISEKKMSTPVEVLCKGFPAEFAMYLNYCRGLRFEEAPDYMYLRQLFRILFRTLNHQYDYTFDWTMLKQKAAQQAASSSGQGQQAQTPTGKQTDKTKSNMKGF
T1 sequence (Q96SW2 whole entry): as the sequence (Q96SW2 whole entry) above
T1 sequence (Q16531 whole entry partner): as the sequence (Q16531 whole entry partner) above
T3 sequence (Q9UKS7 whole entry): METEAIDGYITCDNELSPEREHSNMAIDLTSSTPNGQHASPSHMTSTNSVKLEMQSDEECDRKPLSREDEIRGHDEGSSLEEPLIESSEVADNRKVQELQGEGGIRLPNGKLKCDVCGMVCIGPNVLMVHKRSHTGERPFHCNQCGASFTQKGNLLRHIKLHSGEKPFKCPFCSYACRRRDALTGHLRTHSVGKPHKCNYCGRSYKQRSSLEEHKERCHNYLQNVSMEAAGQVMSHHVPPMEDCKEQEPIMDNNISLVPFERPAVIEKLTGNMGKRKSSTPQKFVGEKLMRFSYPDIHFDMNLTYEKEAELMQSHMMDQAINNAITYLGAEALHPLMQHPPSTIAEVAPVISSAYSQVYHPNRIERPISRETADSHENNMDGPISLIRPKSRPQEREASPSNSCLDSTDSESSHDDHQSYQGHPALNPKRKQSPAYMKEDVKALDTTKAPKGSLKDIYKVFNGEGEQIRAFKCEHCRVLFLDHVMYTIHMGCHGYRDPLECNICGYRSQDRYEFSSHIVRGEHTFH
T3 sequence (Q96SW2 whole entry): as the sequence (Q96SW2 whole entry) above
T3 sequence (Q16531 whole entry partner): as the sequence (Q16531 whole entry partner) above
T5 sequence (P30291 whole entry): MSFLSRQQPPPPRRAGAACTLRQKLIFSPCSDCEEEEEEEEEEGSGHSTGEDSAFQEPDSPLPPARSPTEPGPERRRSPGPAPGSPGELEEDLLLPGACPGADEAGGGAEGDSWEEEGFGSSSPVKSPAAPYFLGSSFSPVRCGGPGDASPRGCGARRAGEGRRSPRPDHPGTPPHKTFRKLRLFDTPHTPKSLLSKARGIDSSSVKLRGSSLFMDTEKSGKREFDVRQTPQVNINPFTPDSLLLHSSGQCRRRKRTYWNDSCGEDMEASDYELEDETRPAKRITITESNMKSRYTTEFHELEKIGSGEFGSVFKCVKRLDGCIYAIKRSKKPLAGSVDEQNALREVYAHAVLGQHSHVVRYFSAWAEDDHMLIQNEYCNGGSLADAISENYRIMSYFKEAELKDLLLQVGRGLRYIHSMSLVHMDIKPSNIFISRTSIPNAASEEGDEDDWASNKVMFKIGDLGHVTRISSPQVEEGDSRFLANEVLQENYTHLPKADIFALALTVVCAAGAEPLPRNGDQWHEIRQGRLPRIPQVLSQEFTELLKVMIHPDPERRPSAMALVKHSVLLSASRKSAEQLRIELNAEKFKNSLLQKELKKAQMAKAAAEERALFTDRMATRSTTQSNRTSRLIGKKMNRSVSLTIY
T5 sequence (Q96SW2 whole entry): as the sequence (Q96SW2 whole entry) above
T5 sequence (Q16531 whole entry partner): as the sequence (Q16531 whole entry partner) above

Row | Compound | inhibition at 0.5 µM [1] [%] | inhibition at 2 µM [1] [%] | CK1α substrate protein remaining % (CK1α; [5]) | IKZF 1 substrate protein remaining % (IKZF1; [5]) | IKZF2 substrate protein remaining % (IKZF2; [5]) | IKZF3 substrate protein remaining % (IKZF3; [5]) | Wee1 substrate protein remaining % (WEE1; [5]) | GSPT1 substrate protein remaining % (GSPT1; [5]) | inhibition at 0.01 µM [2] [%] | inhibition at 0.5 µM [2] [%] | inhibition at 0.01 µM [3] [%] | inhibition at 0.5 µM [3] [%] | inhibition at 0.01 µM [4] [%] | inhibition at 0.5 µM [4] [%] | CK1α substrate protein remaining % (CK1α; [6]) | IKZF 1 substrate protein remaining % (IKZF1; [6]) | IKZF2 substrate protein remaining % (IKZF2; [6]) | IKZF3 substrate protein remaining % (IKZF3; [6]) | Wee1 substrate protein remaining % (WEE1; [6]) | GSPT1 substrate protein remaining % (GSPT1; [6])
1 | O=C1CCC(N2Cc3cc(CN4CCN(C(c5ccc(F)cc5)c5ccc(F)cc5)CC4)ccc3C2=S)C(=O)N1 (stereo not shown) [GT-07736, 3-(5-((4-(bis(4-fluorophenyl)methyl)piperazin-1-yl)methyl)-1-thioxoisoindolin-2-yl)piperidine-2,6-dione] | 20 to 30 | 60 to 80 | B (80%< substrate protein remaining %≤ 100%) | A (0% ≤ substrate protein remaining % ≤ 80%) | B (80%< substrate protein remaining %≤ 100%) | A (0% ≤ substrate protein remaining % ≤ 80%) | A (0% ≤ substrate protein remaining % ≤ 80%) | A (0% ≤ substrate protein remaining % ≤ 80%) | 10 to 20 | 80 to 100 | 10 to 20 | 40 to 50 | 10 to 18 | 40 to 60 | – | – | – | – | – | –
2 | O=C1CCC(N2Cc3cc(CN4C5CCC4CN(c4cccc(Cl)c4Cl)C5)ccc3C2=S)C(=O)N1 (stereo not shown) [GT-08480, 3-(5-((3-(2,3-dichlorophenyl)-3,8-diazabicyclo[3.2.1]octan-8-yl)methyl)-1-thioxoisoindolin-2-yl)piperidine-2,6-dione] | 40 to 53 | 80 to 100 | B (80%< substrate protein remaining %≤ 100%) | B (80%< substrate protein remaining %≤ 100%) | B (80%< substrate protein remaining %≤ 100%) | B (80%< substrate protein remaining %≤ 100%) | B (80%< substrate protein remaining %≤ 100%) | A (0% ≤ substrate protein remaining % ≤ 80%) | 20 to 30 | 80 to 100 | 0 to 5 | 80 to 100 | 25 to 30 | 80 to 100 | – | – | – | – | – | –
3 | O=C1CCC(N2Cc3cc(CN4CCN(c5ccc(Cl)c(Cl)c5)CC4)ccc3C2=S)C(=O)N1 (stereo not shown) [GT-08612, 3-(5-((4-(3,4-dichlorophenyl)piperazin-1-yl)methyl)-1-thioxoisoindolin-2-yl)piperidine-2,6-dione] | 30 to 40 | 60 to 80 | B (80%< substrate protein remaining %≤ 100%) | B (80%< substrate protein remaining %≤ 100%) | B (80%< substrate protein remaining %≤ 100%) | B (80%< substrate protein remaining %≤ 100%) | B (80%< substrate protein remaining %≤ 100%) | A (0% ≤ substrate protein remaining % ≤ 80%) | – | – | 10 to 20 | 50 to 60 | – | – | – | – | – | – | – | –
4 | O=C1CCC(N2Cc3cc(CN4CCN(c5ccnc(Cl)c5Br)CC4)ccc3C2=S)C(=O)N1 (stereo not shown) [GT-09240, 3-(5-((4-(3-bromo-2-chloropyridin-4-yl)piperazin-1-yl)methyl)-1-thioxoisoindolin-2-yl)piperidine-2,6-dione] | 80 to 100 | 80 to 100 | – | – | – | – | – | – | – | – | 50 to 60 | 30 to 40 | – | – | B (80%< substrate protein remaining %≤ 100%) | A (0% ≤ substrate protein remaining % ≤ 80%) | B (80%< substrate protein remaining %≤ 100%) | B (80%< substrate protein remaining %≤ 100%) | B (80%< substrate protein remaining %≤ 100%) | A (0% ≤ substrate protein remaining % ≤ 80%)

Second part, led by results:

Row | inhibition at 0.5 µM [1] [%] | inhibition at 2 µM [1] [%] | Compound | CK1α substrate protein remaining % (CK1α; [5]) | IKZF 1 substrate protein remaining % (IKZF1; [5]) | IKZF2 substrate protein remaining % (IKZF2; [5]) | IKZF3 substrate protein remaining % (IKZF3; [5]) | Wee1 substrate protein remaining % (WEE1; [5]) | GSPT1 substrate protein remaining % (GSPT1; [5]) | inhibition at 0.01 µM [2] [%] | inhibition at 0.5 µM [2] [%] | inhibition at 0.01 µM [3] [%] | inhibition at 0.5 µM [3] [%] | inhibition at 0.01 µM [4] [%] | inhibition at 0.5 µM [4] [%] | CK1α substrate protein remaining % (CK1α; [6]) | IKZF 1 substrate protein remaining % (IKZF1; [6]) | IKZF2 substrate protein remaining % (IKZF2; [6]) | IKZF3 substrate protein remaining % (IKZF3; [6]) | Wee1 substrate protein remaining % (WEE1; [6]) | GSPT1 substrate protein remaining % (GSPT1; [6])
5 | 60 to 80 | 80 to 100 | Cc1cc(N2CCN(Cc3ccc4c(c3)CN(C3CCC(=O)NC3=O)C4=S)CC2)cs1 (stereo not shown) [GT-08170, 3-(5-((4-(5-methylthiophen-3-yl)piperazin-1-yl)methyl)-1-thioxoisoindolin-2-yl)piperidine-2,6-dione] | – | – | – | – | – | – | – | – | 5 to 10 | 60 to 70 | 25 to 30 | 60 to 80 | A (0% ≤ substrate protein remaining % ≤ 80%) | B (80%< substrate protein remaining %≤ 100%) | A (0% ≤ substrate protein remaining % ≤ 80%) | A (0% ≤ substrate protein remaining % ≤ 80%) | B (80%< substrate protein remaining %≤ 100%) | A (0% ≤ substrate protein remaining % ≤ 80%)
6 | 40 to 53 | 80 to 100 | COc1ccccc1N1CCN(Cc2ccc3c(c2)CN(C2CCC(=O)NC2=O)C3=S)CC1 (stereo not shown) [GT-08236, 3-(5-((4-(2-methoxyphenyl)piperazin-1-yl)methyl)-1-thioxoisoindolin-2-yl)piperidine-2,6-dione] | B (80%< substrate protein remaining %≤ 100%) | B (80%< substrate protein remaining %≤ 100%) | B (80%< substrate protein remaining %≤ 100%) | B (80%< substrate protein remaining %≤ 100%) | B (80%< substrate protein remaining %≤ 100%) | A (0% ≤ substrate protein remaining % ≤ 80%) | – | – | 10 to 20 | 40 to 50 | 10 to 18 | 60 to 80 | – | – | – | – | – | –
7 | 30 to 40 | 60 to 80 | Cc1ccc(Cl)cc1N1CCN(Cc2ccc3c(c2)CN(C2CCC(=O)NC2=O)C3=S)CC1 (stereo not shown) [GT-08615, 3-(5-((4-(5-chloro-2-methylphenyl)piperazin-1-yl)methyl)-1-thioxoisoindolin-2-yl)piperidine-2,6-dione] | B (80%< substrate protein remaining %≤ 100%) | B (80%< substrate protein remaining %≤ 100%) | B (80%< substrate protein remaining %≤ 100%) | B (80%< substrate protein remaining %≤ 100%) | B (80%< substrate protein remaining %≤ 100%) | A (0% ≤ substrate protein remaining % ≤ 80%) | 10 to 20 | 40 to 50 | 5 to 10 | 50 to 60 | – | – | – | – | – | – | – | –
8 | 53 to 60 | 80 to 100 | O=C1CCC(N2Cc3c(CN4CCN(Cc5ccc(-c6ccc(Cl)cc6)cc5)CC4)cccc3C2=S)C(=O)N1 (stereo not shown) [GT-08960, 3-(4-((4-((4'-chloro-[1,1'-biphenyl]-4-yl)methyl)piperazin-1-yl)methyl)-1-thioxoisoindolin-2-yl)piperidine-2,6-dione] | – | – | – | – | – | – | – | – | 20 to 30 | 40 to 50 | – | – | – | – | – | – | – | –
